{
  "source": "patent US12472144B2",
  "about": "“Pharmaceutical composition comprising eliglustat” (Amneal Pharmaceuticals LLC, priority 2017, dated 2025)",
  "key": {"[1]": {"details": "presence of food; cited from earlier work"}, "[2]": {"assay": "Comparative pharmacokinetic study of sublingual thin film and oral formulation in rabbits", "assay_type": "in vivo", "details": "rabbit, blood, male New Zealand White Rabbits", "excerpt": "Animals. […] No non-disintegrated film fragments were observed."}, "[3]": {"details": "in vitro, human; cited from earlier work"}, "[4]": {"details": "cited from earlier work; for oral bioavailability: significant first pass metabolism"}, "[5]": {"details": "BCS class I drug substance; cited from earlier work"}, "[6]": {"details": "other: sublingual, sublingual route, oral thin film, 10 mg"}, "[7]": {"details": "oral dosing by gavage as a solution"}},
  "note": "Where two headings read alike, the source gives them in different places.",
  "data": [
    {"compound": "CCCCCCCC(=O)N[C@H](CN1CCCC1)[C@H](O)c1ccc2c(c1)OCCO2.O=C(O)C(O)C(O)C(=O)O", "note": "[Eliglustat tartrate, N-((1R,2R)-1-(2,3-dihydrobenzo [b] [1,4]dioxin-6-yl)-1-hydroxy-3-(pyrrolidin-1-yl)propan-2-yl) octanamide (2R,3R)-2,3-dihydroxysuccinate]", "values": [
      {"measurement": "effect of food on extent of absorption", "setting": "[1]", "value": "did not affect the extent of absorption"},
      {"measurement": "AUC(0-inf)", "setting": "[2]; [6]", "value": "232 ± 106", "unit": "ng·h/mL"},
      {"measurement": "AUC(0-t)", "setting": "[2]; [6]", "value": "226 ± 107", "unit": "ng·h/mL"},
      {"measurement": "Cmax", "setting": "[2]; [6]", "value": "79.4 ± 51.6", "unit": "ng/mL"},
      {"measurement": "MRT last", "setting": "[2]; [6]", "value": "2.72 ± 0.359", "unit": "h"},
      {"measurement": "Tmax", "setting": "[2]; [6]", "value": "0.667 ± 0.289", "unit": "h"},
      {"measurement": "half-life", "setting": "[2]; [6]", "value": "2.55 ± 0.511", "unit": "h"},
      {"measurement": "AUC(0-inf)", "setting": "[2]; [7]", "value": "9.6 ± 6.04", "unit": "ng·h/mL"},
      {"measurement": "AUC(0-t)", "setting": "[2]; [7]", "value": "6.31 ± 4.85", "unit": "ng·h/mL"},
      {"measurement": "Cmax", "setting": "[2]; [7]", "value": "3.31 ± 2.11", "unit": "ng/mL"},
      {"measurement": "MRT last", "setting": "[2]; [7]", "value": "1.53 ± 0.546", "unit": "h"},
      {"measurement": "Tmax", "setting": "[2]; [7]", "value": "0.583 ± 0.382", "unit": "h"},
      {"measurement": "half-life", "setting": "[2]; [7]", "value": "2.35 ± 0.341", "unit": "h"}
    ]},
    {"compound": "CCCCCCCC(=O)N[C@H](CN1CCCC1)[C@H](O)c1ccc2c(c1)OCCO2", "note": "[Genz-99067]", "values": [
      {"measurement": "first-pass effect indicated by metabolic stability", "setting": "[3]", "value": "significant first-pass effect"}
    ]},
    {"compound": "CCCCCCCC(=O)N[C@H](CN1CCCC1)[C@H](O)c1ccc2c(c1)OCCO2", "note": "[eliglustat]", "values": [
      {"measurement": "absolute bioavailability", "setting": "[4]; CERDELGA capsule, CHMP European Assessment report", "value": "4.49%±4.13"},
      {"measurement": "oral bioavailability", "setting": "[4]", "value": "less than 5%"},
      {"measurement": "oral bioavailability", "setting": "[4]; listed as Eliglustat", "value": "< 5", "unit": "%"},
      {"measurement": "solubility", "setting": "[5]", "value": "high"}
    ]}
  ]
}
